Measurements reported in patent US11039995B2, “Topical compositions for reducing the effects of aging” (Samson Pharma, LLC, priority 2013, dated 2021).

Tests used:
[1] = cited from earlier work
[2] = test system: skin of albino rabbits; experiment: Acute dermal irritation/corrosion (OECD 404), single topical 4-hour application; type: in vivo
Protocol: A study was conducted based upon the following references: OECD 404, Organization for Economic Co-Operation and Development (OECD), Guidelines for the Testing of Chemicals, “Acute Dermal Irritation/Corrosion”, adopted 24 Apr. 2002. ISO 10993-12, 2012, Biological Evaluation of Medical Devices—Part 12: Sample Preparation and Reference Materials. ISO/IEC 17025, 2005. General Requirements for the Competence of Testing and Calibration Laboratories.
The skin of three albino rabbits was prepared for testing by clipping the skin of the trunk free of hair at the application sites within 24 hours of the test. The sites of application were not abraded deliberately or accidentally during preparation. Tamibarotene was administered at dose levels of 0.02%, 0.04%, and 0.08% in 60% DMSO. The animals were treated by introducing each dose level (0.5 ml) under gauze patches at individual application sites. The control (0.5 ml of 60% DMSO) was applied to a fourth site.
As it was suspected that tamibarotene might produce severe irritancy/corrosion, a single animal test was initially employed. Test patches of each dose level and control were applied. After three minutes, the skin sites were examined by gently lifting the bandage to examine the skin without bandage removal. […] If a corrosion effect was observed after three minutes or one hour, the test was to be immediately terminated.
Because an irritation or corrosive effect was not observed in the initial test after one hour, the response was confirmed using two additional animals dosed with each dose level and control at individual application sites for four hours. At the end of the exposure period, the wrapping was removed from and the skin washed with USP sterile Water for Injection (SWFI) to remove any test substance still remaining. […] Observations were scored according to the Draize Scale for Scoring Skin Reactions.

[3] = test system: promyelocytic leukemia cells; conditions: relative to all-trans retinoic acid; cited from earlier work
[4] = clinical trials; cited from earlier work

SMILES	plasma concentration during daily administration [1]	irritation or corrosive effect after one hour ([2]; initial single animal test, 0.02%, 0.04%, 0.08% in 60% DMSO, after one hour)	serious skin reaction after three minutes ([2]; initial single animal, 0.02%, 0.04%, 0.08% in 60% DMSO, 0.5 ml under gauze patches, examined after three minutes)	primary dermal irritation classification ([2]; single topical 4-hour application, dose levels 0.02%, 0.04%, 0.08% in 60% DMSO)	body weight ([2]; three albino rabbits, during the study)	signs of erythema or edema (Draize Scale) ([2]; three rabbits, 4-hour exposure, 0.02%, 0.04%, 0.08% in 60% DMSO, observed 60 minutes, 24, 48, 72 hours after bandage removal)	potency as an inducer of differentiation compared to ATRA [3]	adverse side effects compared to ATRA [4]
CC1=C(/C=C/C(C)=C/C=C/C(C)=C/C(=O)O)C(C)(C)CCC1 [ATRA, all-trans retinoic acid]	declines considerably	–	–	–	–	–	–	–
CC1(C)CCC(C)(C)c2cc(NC(=O)c3ccc(C(=O)O)cc3)ccc21 [tamibarotene, Benzoic acid,4-[[(5,6,7,8-tetrahydro-5,5,8,8-tetramethyl-2-naphthalenyl)amino]carbonyl]—]	sustains plasma level	not observed	no serious skin reaction was observed	non-irritant	gained weight	None of the test sites presented any signs of erythema or edema	several times more potent	milder
